Patent US5945325A, “Thermally stable para-nitrobenzyl esterases” (priority 1998, dated 1999)
Like-named read-outs stand apart in the source and are kept apart here.

Tests used:
Experiment in all cases: Kinetic assays of purified pNB esterase on ester substrates in DMF/PIPES
Type in all cases: biochemical
[1] = molecular target: T1, Bacillus subtilis para-nitrobenzyl esterase variant 1-1H9 (incl. Tyr 370 Phe), SEQ. ID. NO. 4 (Bacillus subtilis, UniProt P37967, form not given/H322R/Y370F); conditions: 0.1 M PIPES pH 7.0, 30° C.
Procedure: (§1) FIG. 8a is a plot of variant and wild type pNB esterase reaction kinetics on pNPA in aqueous buffer (0% dimethylformamide). Enzymes were added to a 30° C. reaction solution consisting of 0.1 M PIPES (pH 7.0) and varying concentrations of pNPA.
(§2) FIG. 8b is a plot of variant and wild type pNB esterase reaction kinetics on pNPA in 15% DMF. Enzymes were added to a 30° C. reaction solution consisting of 0.1 M PIPES (pH 7.0), 15% DMF, and varying concentrations of pNPA.
(§3) FIG. 8c is a plot of variant and wild type pNB esterase reaction kinetics on pNPA in 30% DMF. Enzyme were added to a 30° C. reaction solution consisting of 0.1 M PIPES (pH 7.0), 30% DMF, and varying concentrations of pNPA.
(§4) FIG. 9a is a plot of variant wild type pNB esterase kinetics on LCN-pNP in 1% DMF. Enzymes listed were added to a 30° C. reaction solution consisting of 0.1 M PIPES (pH 7.0), 1% DMF, and varying concentrations of LCN-pNP.
(§5) FIG. 9b is a plot of variant and wild type pNB esterase reaction kinetics on LCN-pNP in 15% DMF. Enzymes were added to a 30° C. reaction solution consisting of 0.1 M PIPES (pH 7.0), 15% DMF, and varying concentrations of LCN-pNP.
(§6) FIG. 9c is a plot of variant and wild type pNB esterase reaction kinetics on LCN-pNP in 30% DMF. Enzymes were added to a 30° C. reaction solution consisting of 0.1 M PIPES (pH 7.0), 30% DMF, and varying concentrations of LCN-pNP.
(§7) FIG. 10a is a plot of variant and wild type pNB esterase reaction kinetics on LCN-pNB in 1% DMF. Enzymes were added to a 30° C. reaction solution consisting of 0.1 M PIPES (pH 7.0), 1% DMF, and varying concentrations of LCN-pNB.
(§8) FIG. 10b is a plot of variant and wild type pNB esterase reaction kinetics on LCN-pNB in 15% DMF. Enzyme were added to a 30° C. reaction solution consisting of 0.1 M PIPES (pH 7.0), 15% DMF, and varying concentrations of LCN-pNB.
Bacteria expressing seven pNB esterases, O-WT (SEQ. ID. NO. 2), 1-1H9, 2-19E10, 3-10C4, 4-38B9, 4-43E7, and 4-54B9, were grown in on cultures, and the enzymes were purified. These purified enzymes were assayed for their ability to hydrolyze the different ester substrates in the presence of various concentrations of DMF.
(§9) Kinetic assays were performed on three substrates: pNPA, LCN-pNP, and p-nitrobenzyl loracarbef nucleus (LCN-pNB). For pNPA and LCN-pNP substrates, final concentrations varying from 0.0625 mM to 16 mM and 0, 15, and 30% DMF in 0.1 M PIPES (pH 7.0) were combined with equal volumes of enzyme samples. These samples were mixed simultaneously in a 96 well plate and monitored with the 96 well plate reader. The absorbance values were recorded, linearly regressed, and then used for calculating kinetic parameters. For the LCN-pNB substrate, final concentrations varying from 0.0156 mM to 8.0 mM and 0, 15 and 30% DMF in PIPES (pH 7.0) were combined with enzyme samples in a quartz cuvette and were measured in a spectrophotometer at 289 nm. All assays were measured in triplicate.

[2] = molecular target: T1, Bacillus subtilis para-nitrobenzyl esterase variant 1-1H9 (incl. Tyr 370 Phe), SEQ. ID. NO. 4; conditions: 0% DMF, 0.1 M PIPES pH 7.0, 30° C.
[3] = molecular target: Bacillus subtilis para-nitrobenzyl esterase variant 4-38B9 (3-10C4 plus Ile 60 Val), SEQ. ID. NO. 10 (Bacillus subtilis, UniProt P37967, form not given/H322R/I60V/L144M/M358V/Y370F); conditions: 0.1 M PIPES pH 7.0, 30° C.
Procedure: as §1, §2, §3, §4, §5, §6, §7, §8
(§10) Bacteria expressing seven pNB esterases, O-WT (SEQ. ID. NO. 2), 1-1H9, 2-19E10, 3-10C4, 4-38B9, 4-43E7, and 4-54B9, were grown in on cultures, and the enzymes were purified. These purified enzymes were assayed for their ability to hydrolyze the different ester substrates in the presence of various concentrations of DMF. FIGS. 8a, b and c show the specific reaction rates on pNPA as a function of pNPA substrate concentration for this series of evolved variants from the four generations of mutagenesis and screening. […] The wild type enzyme outperforms 1-1H9 in purely aqueous buffer (FIG. 8a). The actual screening, however, was performed in the presence of DMF, and in 15 and 30% DMF, 1-1H9 has higher specific activity towards pNPA than wild type (FIGS. 8b and 8c). Similar trends are seen for the remaining variants assayed on this substrate. […] In 30% DMF, wild type drops still further relative to the pNB esterase variants. Variants 4-38B9 and 4-43E7, presumably by virtue of having been screened in DMF for four rounds of mutagenesis, are the best performers in 30% DMF.
(§11) DMF dramatically increases KM while also decreasing kcat. For the LCN substrates, the mutations accumulated during directed evolution mitigate the increased KM. […] At substrate concentrations […], increased specific activity will result mainly from improvements in kcat. These improvements are the most useful for enzymes intended to be used for transformations in high substrate concentrations.
as §9, with “For the LCN-pNB substrate, final concentrations varying from 0.0156 mM to 8.0 mM and 0, 15 and 30% DMF in PIPES (pH 7.0) were combined with enzyme samples in a quartz cuvette and were measured in a spectrophotometer at 289 nm. All assays were measured in triplicate.” left out

[4] = molecular target: Bacillus subtilis para-nitrobenzyl esterase variant 4-43E7 (3-10C4 plus Leu 334 Val and one more substitution), SEQ. ID. NO. 12 (Bacillus subtilis, UniProt P37967, form not given/H322R/L144M/L334V/M358V/S94G/Y370F); conditions: 0.1 M PIPES pH 7.0, 30° C.
Procedure: as §1, §2, §3, §4, §5, §6, §7, §8, §10, §11
as §9, with “For the LCN-pNB substrate, final concentrations varying from 0.0156 mM to 8.0 mM and 0, 15 and 30% DMF in PIPES (pH 7.0) were combined with enzyme samples in a quartz cuvette and were measured in a spectrophotometer at 289 nm. All assays were measured in triplicate.” left out

[5] = molecular target: Bacillus subtilis para-nitrobenzyl esterase variant 4-54B9 (3-10C4 plus Leu 334 Ser and one more substitution), SEQ. ID. NO. 14 (Bacillus subtilis, UniProt P37967, form not given/H322R/K267R/L144M/L334S/M358V/Y370F); conditions: for kcat (p-nitrobenzyl loracarbef nucleus) / Km / kcat (p-nitrophenyl loracarbef nucleus): 0.1 M PIPES pH 7.0, 30° C.
Procedure: as §1, §2, §3, §4, §5, §6, §7, §8, §10, §11
as §9, with “For the LCN-pNB substrate, final concentrations varying from 0.0156 mM to 8.0 mM and 0, 15 and 30% DMF in PIPES (pH 7.0) were combined with enzyme samples in a quartz cuvette and were measured in a spectrophotometer at 289 nm. All assays were measured in triplicate.” left out

[6] = molecular target: Bacillus subtilis para-nitrobenzyl esterase (pNB esterase), wild type 0-WT, SEQ. ID. NO. 2 (Bacillus subtilis, UniProt P37967); conditions: 0.1 M PIPES pH 7.0, 30° C.
Procedure: as §1, §2, §3, §4, §5, §6, §7, §8, §10, §11
as §9, with “For the LCN-pNB substrate, final concentrations varying from 0.0156 mM to 8.0 mM and 0, 15 and 30% DMF in PIPES (pH 7.0) were combined with enzyme samples in a quartz cuvette and were measured in a spectrophotometer at 289 nm. All assays were measured in triplicate.” left out

[7] = molecular target: Bacillus subtilis para-nitrobenzyl esterase variant 3-10C4 (2-19E10 plus Leu 144 Met), SEQ. ID. NO. 8 (Bacillus subtilis, UniProt P37967, form not given/H322R/L144M/M358V/Y370F); conditions: 0.1 M PIPES pH 7.0, 30° C.
Procedure: as §1, §2, §3, §4, §5, §6, §7, §8, §10, §11
as §9, with “For the LCN-pNB substrate, final concentrations varying from 0.0156 mM to 8.0 mM and 0, 15 and 30% DMF in PIPES (pH 7.0) were combined with enzyme samples in a quartz cuvette and were measured in a spectrophotometer at 289 nm. All assays were measured in triplicate.” left out

[8] = molecular target: Bacillus subtilis para-nitrobenzyl esterase variant 2-19E10 (1-1H9 substitutions plus Met 358 Val), SEQ. ID. NO. 6 (Bacillus subtilis, UniProt P37967, form not given/H322R/M358V/Y370F); conditions: 0.1 M PIPES pH 7.0, 30° C.
Procedure: as §1, §2, §3, §4, §5, §6, §7, §8, §10, §11
as §9, with “For the LCN-pNB substrate, final concentrations varying from 0.0156 mM to 8.0 mM and 0, 15 and 30% DMF in PIPES (pH 7.0) were combined with enzyme samples in a quartz cuvette and were measured in a spectrophotometer at 289 nm. All assays were measured in triplicate.” left out

[9] = 15% DMF, read-out: Km (p-nitrobenzyl loracarbef nucleus)
[10] = 0% DMF, read-out: Km (p-nitrobenzyl loracarbef nucleus)
[11] = 15% DMF, on LCN-pNB, relative to wild type
[12] = 15% DMF, read-out: Km (p-nitrophenyl loracarbef nucleus)
[13] = 30% DMF, read-out: Km (p-nitrophenyl loracarbef nucleus)
[14] = 0% DMF, read-out: Km (p-nitrophenyl loracarbef nucleus)

Sequence of Bacillus subtilis para-nitrobenzyl esterase variant 2-19E10 (1-1H9 substitutions plus Met 358 Val), SEQ. ID. NO. 6 (P37967 whole entry K23L/S59P/K95Q/N150D/S230A/G242S/K246R/S251A/A291S/H322R/V343A/M358V/Y370F/K390E/L463V, form open): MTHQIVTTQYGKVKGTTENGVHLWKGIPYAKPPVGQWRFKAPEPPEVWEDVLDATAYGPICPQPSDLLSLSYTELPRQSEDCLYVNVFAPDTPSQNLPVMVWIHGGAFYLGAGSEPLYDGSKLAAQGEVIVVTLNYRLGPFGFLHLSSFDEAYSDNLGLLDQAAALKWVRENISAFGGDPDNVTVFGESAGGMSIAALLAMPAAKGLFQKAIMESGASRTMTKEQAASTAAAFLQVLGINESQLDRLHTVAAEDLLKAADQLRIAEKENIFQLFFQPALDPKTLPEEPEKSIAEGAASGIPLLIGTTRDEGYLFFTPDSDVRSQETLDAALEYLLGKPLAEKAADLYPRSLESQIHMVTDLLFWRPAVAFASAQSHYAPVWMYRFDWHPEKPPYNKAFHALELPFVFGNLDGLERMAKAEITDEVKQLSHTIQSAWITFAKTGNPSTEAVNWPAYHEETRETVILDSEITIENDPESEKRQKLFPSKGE
Sequence of Bacillus subtilis para-nitrobenzyl esterase variant 4-43E7 (3-10C4 plus Leu 334 Val and one more substitution), SEQ. ID. NO. 12 (P37967 other isoform, or with tags, fused parts or gaps with the stated changes, form open): as the sequence (P37967 whole entry K23L/S59P/K95Q/N150D/S230A/G242S/K246R/S251A/A291S/H322R/V343A/M358V/Y370F/K390E/L463V, form open) above, with S94G, L144M, L334V counted along it
Sequence of Bacillus subtilis para-nitrobenzyl esterase variant 4-54B9 (3-10C4 plus Leu 334 Ser and one more substitution), SEQ. ID. NO. 14 (P37967 other isoform, or with tags, fused parts or gaps with the stated changes, form open): as the sequence (P37967 whole entry K23L/S59P/K95Q/N150D/S230A/G242S/K246R/S251A/A291S/H322R/V343A/M358V/Y370F/K390E/L463V, form open) above, with L144M, K267R, L334S counted along it
T1 sequence (P37967 whole entry K23L/S59P/K95Q/N150D/S230A/G242S/K246R/S251A/A291S/H322R/V343A/Y370F/K390E/L463V, form open): as the sequence (P37967 whole entry K23L/S59P/K95Q/N150D/S230A/G242S/K246R/S251A/A291S/H322R/V343A/M358V/Y370F/K390E/L463V, form open) above, with V358M counted along it
Sequence of Bacillus subtilis para-nitrobenzyl esterase variant 3-10C4 (2-19E10 plus Leu 144 Met), SEQ. ID. NO. 8 (P37967 other isoform, or with tags, fused parts or gaps with the stated changes, form open): as the sequence (P37967 whole entry K23L/S59P/K95Q/N150D/S230A/G242S/K246R/S251A/A291S/H322R/V343A/M358V/Y370F/K390E/L463V, form open) above, with L144M counted along it
Sequence of Bacillus subtilis para-nitrobenzyl esterase variant 4-38B9 (3-10C4 plus Ile 60 Val), SEQ. ID. NO. 10 (P37967 other isoform, or with tags, fused parts or gaps with the stated changes, form open): as the sequence (P37967 whole entry K23L/S59P/K95Q/N150D/S230A/G242S/K246R/S251A/A291S/H322R/V343A/M358V/Y370F/K390E/L463V, form open) above, with I60V, L144M counted along it
Sequence of Bacillus subtilis para-nitrobenzyl esterase (pNB esterase), wild type 0-WT, SEQ. ID. NO. 2 (P37967 whole entry K23L/S59P/K95Q/N150D/S230A/G242S/K246R/S251A/A291S/V343A/K390E/L463V): as the sequence (P37967 whole entry K23L/S59P/K95Q/N150D/S230A/G242S/K246R/S251A/A291S/H322R/V343A/M358V/Y370F/K390E/L463V, form open) above, with R322H, V358M, F370Y counted along it

Structure (SMILES): NC1C(=O)N2C(C(=O)OCc3ccc([N+](=O)[O-])cc3)=C(Cl)CCC12 (stereo not drawn) [p-nitrobenzyl loracarbef nucleus]
- kcat (p-nitrobenzyl loracarbef nucleus) ([1]; 15% DMF): 0.69
- Km [1, 9]: 0.85 mM
- kcat (p-nitrobenzyl loracarbef nucleus) [2]: 1.94
- Km ([2]; read-out: Km (p-nitrobenzyl loracarbef nucleus)): 40 µM
- kcat (p-nitrobenzyl loracarbef nucleus) ([3]; 0% DMF): 8.51
- Km [3, 10]: 40 µM
- kcat (p-nitrobenzyl loracarbef nucleus) ([3]; 15% DMF): 1.89
- Km [3, 9]: 310 µM
- kcat (p-nitrobenzyl loracarbef nucleus) ([4]; 0% DMF): 9.13
- Km [4, 10]: 30 µM
- kcat (p-nitrobenzyl loracarbef nucleus) ([4]; 15% DMF): 3.02
- Km [4, 9]: 370 µM
- kcat (p-nitrobenzyl loracarbef nucleus) ([5]; 0% DMF): 18.96
- Km [5, 10]: 50 µM
- kcat (p-nitrobenzyl loracarbef nucleus) ([5]; 15% DMF): 6.84
- Km [5, 9]: 460 µM
- KM change from wild type to 4-54B9 [5, 11]: decreases by less than a factor of two
- kcat increase from wild type to 4-54B9 [5, 11]: more than 9 fold
- kcat (p-nitrobenzyl loracarbef nucleus) ([6]; 0% DMF): 1.64
- Km [6, 10]: 40 µM
- kcat (p-nitrobenzyl loracarbef nucleus) ([6]; 15% DMF): 0.54
- Km [6, 9]: 880 µM
- kcat (p-nitrobenzyl loracarbef nucleus) ([7]; 0% DMF): 6.53
- Km [7, 10]: 70 µM
- kcat (p-nitrobenzyl loracarbef nucleus) ([7]; 15% DMF): 1.62
- Km [7, 9]: 400 µM
- kcat (p-nitrobenzyl loracarbef nucleus) ([8]; 0% DMF): 4.59
- Km [8, 10]: 40 µM
- kcat (p-nitrobenzyl loracarbef nucleus) ([8]; 15% DMF): 1.81
- Km [8, 9]: 870 µM

Structure (SMILES): NC1C(=O)N2C(C(=O)Oc3ccc([N+](=O)[O-])cc3)=C(Cl)CCC12 (stereo not drawn) [p-nitrophenyl loracarbef nucleus]
- kcat (p-nitrophenyl loracarbef nucleus) ([1]; 15% DMF): 0.07
- Km [1, 12]: 1.84 mM
- kcat (p-nitrophenyl loracarbef nucleus) ([1]; 30% DMF): 0.021
- Km [1, 13]: 6.05 mM
- kcat (p-nitrophenyl loracarbef nucleus) [2]: 0.08
- Km ([2]; read-out: Km (p-nitrophenyl loracarbef nucleus)): 30 µM
- kcat (p-nitrophenyl loracarbef nucleus) ([3]; 0% DMF): 0.39
- Km [3, 14]: 60 µM
- kcat (p-nitrophenyl loracarbef nucleus) ([3]; 15% DMF): 0.25
- Km [3, 12]: 1410 µM
- kcat (p-nitrophenyl loracarbef nucleus) ([3]; 30% DMF): 0.067
- Km [3, 13]: 5680 µM
- kcat (p-nitrophenyl loracarbef nucleus) ([4]; 0% DMF): 0.67
- Km [4, 14]: 80 µM
- kcat (p-nitrophenyl loracarbef nucleus) ([4]; 15% DMF): 0.40
- Km [4, 12]: 1270 µM
- kcat (p-nitrophenyl loracarbef nucleus) ([4]; 30% DMF): 0.094
- Km [4, 13]: 5090 µM
- kcat (p-nitrophenyl loracarbef nucleus) ([5]; 0% DMF): 1.44
- Km [5, 14]: 120 µM
- kcat (p-nitrophenyl loracarbef nucleus) ([5]; 15% DMF): 0.93
- Km [5, 12]: 1270 µM
- kcat (p-nitrophenyl loracarbef nucleus) ([5]; 30% DMF): 0.141
- Km [5, 13]: 2920 µM
- kcat (p-nitrophenyl loracarbef nucleus) ([6]; 0% DMF): 0.14
- Km [6, 14]: 70 µM
- kcat (p-nitrophenyl loracarbef nucleus) ([6]; 15% DMF): 0.10
- Km [6, 12]: 2360 µM
- kcat (p-nitrophenyl loracarbef nucleus) ([6]; 30% DMF): 0.024
- Km [6, 13]: 7550 µM
- kcat (p-nitrophenyl loracarbef nucleus) ([7]; 0% DMF): 0.35
- Km [7, 14]: 110 µM
- kcat (p-nitrophenyl loracarbef nucleus) ([7]; 15% DMF): 0.21
- Km [7, 12]: 1770 µM
- kcat (p-nitrophenyl loracarbef nucleus) ([7]; 30% DMF): 0.044
- Km [7, 13]: 5180 µM
- kcat (p-nitrophenyl loracarbef nucleus) ([8]; 0% DMF): 0.25
- Km [8, 14]: 90 µM
- kcat (p-nitrophenyl loracarbef nucleus) ([8]; 15% DMF): 0.12
- Km [8, 12]: 1500 µM
- kcat (p-nitrophenyl loracarbef nucleus) ([8]; 30% DMF): 0.023
- Km [8, 13]: 4670 µM
